Where two headings read alike, the source gives them in different places.
Key:
[1] = test system: subjects; test: Oral dosing comparator 1: single immediate release dosage, AHI; type: in vivo, human
Experimental: (§1) For the purpose of comparing oral medicaments (i.e., providing a comparator), a medicament is orally administered to one or more subjects. The various factors affecting ADME (absorption, distribution, metabolism, and excretion) of the drug are standardized. For example, the patient is optionally a fasted patient and optionally falls asleep within one of 15 minutes or 30 minutes of laying down for bed. The same subjects are used for comparing different medicaments (after providing an appropriate wash-out period).
(§2) Plasma levels of the drug (e.g. THC) and metabolites thereof (e.g. 11-OH-THC) are taken at regular intervals (e.g. every 30 minutes) during a treatment window (e.g. from T0 to T8hr).
(§3) Therapeutic responses are recorded throughout the entire treatment window.
(§4) Therapeutic responses are correlated with pharmacokinetic parameters of the drug or metabolites thereof. The pharmacokinetic parameters include one or more of: plasma concentration and AUC (at various times).
An oral dosing “comparator” is provided by orally administering an immediate release dosage of cannabinoid (e.g. MARINOL® soft gel).

[2] = test system: sleep apnea patient; test: Oral dosing comparator 2: two immediate release dosages in succession (T0 and T3), AHI; type: in vivo, human; settings: immediate release dosages at T0 and T3
Experimental: as §1, §2, §3, §4
A second oral dosing comparator is provided by the method of Example 6, where a first immediate release dosage of cannabinoid (e.g. 2.5 mg MARINOL® soft gel) to a sleep apnea patient 30 minutes before bed at To. The patient is allowed to fall asleep and at a predetermined time, the subject is briefly woken to receive a second immediate release dosage of MARINOL® soft gel (e.g. at T3) and allowed to return to sleep.

[3] = test system: rat model of sleep apnea; settings: 10 mg/kg intraperitoneal, US 2004/0127572; cited from earlier work
[4] = in vivo; cited from earlier work
[5] = cited from earlier work
[6] = described in US 2007/0072939; not shown for sleep related disorders; cited from earlier work

SMILES | therapeutic window ([1]; lower doses (e.g. 5 mg-20 mg)) | AHI ([1]; subjects receiving 1 to 75 mg) | therapeutic window ([2]; lower doses (e.g. 5 mg-20 mg)) | AHI ([2]; subjects receiving 1 to 75 mg) | breathing cessation during non-REM (NREM) sleep [3] | Side Effects, Digestive [4] | Side Effects, Musculoskeletal [4] | Side Effects, Skin and Appendages [4] | Side Effects, Special senses [4] | Side effects with co-administration ([5]; with antipyrine, barbiturates) | Side effects with co-administration ([5]; with atropine, scopolamine, antihistamines, other anticholinergic agents) | Side effects with co-administration ([5]; with barbiturates, benzodiazepines, ethanol, lithium, opioids, buspirone, antihistamines, muscle relaxants, other CNS depressants) | Side effects with co-administration ([5]; with disulfiram, person who smoked marijuana) | Side effects with co-administration ([5]; with fluoxetine 20 mg/day x 4 wks, person, smoking marijuana) | Side effects with co-administration ([5]; with theophylline, smoking of marijuana) | activity compared to the trans-(−)-enantiomer [6]
CCCCCc1cc(O)c2c(c1)OC(C)(C)[C@@H]1CCC(C)=C[C@@H]21 [Dronabinol, Delta-9-tetrahydrocannabinol] | does not consistently extend through the seventh or eighth hour of sleep | improved | generally extends through the seventh or eighth hour of sleep | improved | reduced breathing cessation | Diarrhea*, fecal incontinence. | Myalgias. | Flushing*. | Vision difficulties. | Decreased clearance of these agents, | super-additive tachycardia, drowsiness | Additive drowsiness and CNS depression | reversible hypomanic reaction was reported | became hypomanic after smoking marijuana; | Increased theophylline metabolism reported | 
CCCCCc1cc(O)c2c(c1)OC(C)(C)C1CCC(C)=CC21 (single isomer, unassigned) [trans-(+) enantiomer, trans-(+)-THC] |  |  |  |  |  |  |  |  |  |  |  |  |  |  |  | about 1%

Source: US20120231083A1, “SUSTAINED RELEASE CANNABINOID MEDICAMENTS” (The Board of Trustees of the University of Illinois, priority 2010, published 2012)
